Patent publication US8575197B2, “Pyrolinone derivative and pharmaceutical composition comprising the same” (Shionogi & Co., Ltd., priority 2008, dated 2013)

molecular target: human P2X3 receptor (Homo sapiens (Human), UniProt P56373); experiment: P2X3 receptor inhibition, ATP-evoked Fluo-3 calcium fluorescence (FDSS 3000); assay type: cell-based; conditions: C6BU-1 cell transfected with human P2X3 receptor gene; ATP-evoked Fluo-3 fluorescence
Protocol: Stably expressing cell line (C6BU-1 cell transfected with human P2X3 receptor gene (GenBank accession number Y07683)) was used. The cells were seeded in a 96-well microtiter plate at a concentration of 8000 cells/well and cultured in the medium (8.3% fetal bovine serum, 8.3% horse serum, 1% antibiotic and antifungal in DMEM) for one day at 37° C. under 5% carbon dioxide atmosphere. The medium was replaced with 4 μM Fluo-3-AM solution (pH7.5) containing 20 mM HEPES, 137 mM NaCl, 2.7 mM KCl, 0.9 mM MgCl2, 5.0 mM CaCl2, 5.6 mM D-glucose, 2.5 mM probenecid, 10% BSA, and 0.08% Pluronic F-127, and incubated at 37° C. under 5% dioxide carbon atmosphere for one hour. The plate was washed with washing buffer (20 mM HEPES, 137 mM NaCl, 2.7 mM KCl, 0.9 mM MgCl2, 5.0 mM CaCl2, 5.6 mM D-glucose, 2.5 mM probenecid, pH7.5), and each well was added with 40 μL of this buffer. The plate was placed in High-Throughput Screening System FDSS 3000 (Hamamatsu Photonics K.K.). Measurement of fluorescence intensity by FDSS 3000 was started, and 40 μL of DMSO solutions containing different concentrations of the test compound as prepared by dilution with dilution buffer (20 mM HEPES, 137 mM NaCl, 2.7 mM KCl, 0.9 mM MgCl2, 5.0 mM CaCl2, 5.6 mM D-glucose, 2.5 mM probenecid, 0.1% Pluronic F-127, pH7.5) were dispensed to each well through the built-in automatic dispenser. Five minutes after, 40 nM ATP solution (50 μL) prepared by dilution with the dilution buffer was dispensed through the built-in automatic dispenser, and the measurement of fluorescence intensity was continued for 3 min. For each well, the specific maximum fluorescence intensity was calculated as the ratio of the maximum fluorescence intensity after addition of the ATP solution to the fluorescence intensity at the starting of the measurement. […] FDSS software (Hamamatsu Photonics K.K.) was used for calculation of the specific maximum fluorescence intensity. IC50 was calculated using Microsoft™ Excel™ (Microsoft Corporation) and XLfit™ (ID Business Solutions Ltd.).

Chain of human P2X3 receptor (P56373 whole entry): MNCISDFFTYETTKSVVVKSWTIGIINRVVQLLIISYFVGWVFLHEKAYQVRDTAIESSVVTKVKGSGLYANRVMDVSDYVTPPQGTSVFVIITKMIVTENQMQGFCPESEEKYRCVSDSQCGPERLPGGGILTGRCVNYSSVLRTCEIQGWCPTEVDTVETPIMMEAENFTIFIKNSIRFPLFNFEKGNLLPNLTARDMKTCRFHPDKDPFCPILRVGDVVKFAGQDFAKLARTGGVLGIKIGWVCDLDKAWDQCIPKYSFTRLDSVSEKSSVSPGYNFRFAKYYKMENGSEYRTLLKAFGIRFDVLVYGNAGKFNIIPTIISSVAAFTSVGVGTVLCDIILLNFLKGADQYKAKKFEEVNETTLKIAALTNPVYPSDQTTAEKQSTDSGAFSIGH

Row | IC50 [nM] | SMILES
1 | 612 | COc1ccccc1C1C(C(=O)C(C)(C)C)=C(O)C(=O)N1c1ccc(-c2ccsc2Cl)cc1 (stereo not drawn) [Compound I-192]
2 | 994 | COc1ccccc1C1C(C(=O)C(C)(C)C)=C(O)C(=O)N1c1ccc(-c2cscc2C)cc1 (stereo not drawn) [Compound I-193]
3 | 63 | COCc1ncccc1C1C(C(=O)C(C)C)=C(O)C(=O)N1c1ccc(-c2ccsc2)cc1 (stereo not drawn) [Compound I-194]
4 | 235 | CC(C)C(=O)C1=C(O)C(=O)N(c2ccc(-c3ccsc3)cc2)C1c1cccnc1OCC(=O)O (stereo not drawn) [Compound I-195]
5 | 36 | COc1ccccc1C1C(C(=O)C(C)(C)C)=C(O)C(=O)N1c1ccc(-c2csc(C)c2)cc1 (stereo not drawn) [Compound I-197]
6 | 64 | COc1ccccc1C1C(C(=O)C(C)C)=C(O)C(=O)N1c1ccc(-c2ccoc2)cc1 (stereo not drawn) [Compound I-198]
7 | 19 | CNC(=O)COc1ncccc1C1C(C(=O)C(C)C)=C(O)C(=O)N1c1ccc(-c2ccsc2)cc1 (stereo not drawn) [Compound I-199]
8 | 14 | CC(C)C(=O)C1=C(O)C(=O)N(c2ccc(-c3ccsc3)cc2)C1c1cccnc1OCC(N)=O (stereo not drawn) [Compound I-200]
9 | 39 | COCCOc1ccccc1C1C(C(=O)C(C)C)=C(O)C(=O)N1c1ccc(-c2ccoc2)cc1 (stereo not drawn) [Compound I-201]
10 | 40 | COc1ccccc1[C@@H]1C(C(=O)C(C)C)=C(O)C(=O)N1c1ccc(-c2ccoc2)cc1 [Compound I-202]
11 | 43 | COCc1ccccc1C1C(C(=O)C(C)C)=C(O)C(=O)N1c1ccc(-c2ccoc2)cc1 (stereo not drawn) [Compound I-204]
12 | 14 | COCCOc1ccccc1[C@@H]1C(C(=O)C(C)C)=C(O)C(=O)N1c1ccc(-c2ccoc2)cc1 [Compound I-208]
13 | 234 | COCCOc1ccccc1[C@H]1C(C(=O)C(C)C)=C(O)C(=O)N1c1ccc(-c2ccoc2)cc1 [Compound I-209]
14 | 47 | COc1ccccc1C1C(C(=O)C(C)(C)C)=C(O)C(=O)N1c1ccc(-c2ccc(C)s2)cc1 (stereo not drawn) [Compound I-210]
15 | 157 | COc1ccccc1C1C(C(=O)c2ccco2)=C(O)C(=O)N1c1ccc(-c2ccsc2)cc1 (stereo not drawn) [Compound I-211]
16 | 92 | CC(=O)N(C)c1ccccc1C1C(C(=O)C(C)C)=C(O)C(=O)N1c1ccc(-c2ccsc2)cc1 (stereo not drawn) [Compound I-212]
17 | 6 | COCOc1ccccc1C1C(C(=O)C(C)C)=C(O)C(=O)N1c1ccc(-c2ccsc2)cc1 (stereo not drawn) [Compound I-213]
18 | 22 | COc1ccccc1C1C(C(=O)C(C)C)=C(O)C(=O)N1c1ccc(-c2cccs2)cc1 (stereo not drawn) [Compound I-214]
19 | 13 | COCc1ccccc1C1C(C(=O)C(C)C)=C(O)C(=O)N1c1ccc(-c2cccs2)cc1 (stereo not drawn) [Compound I-215]
20 | 679 | CCOC(=O)C1C(C(=O)C(C)C)=C(O)C(=O)N1c1ccc(-c2ccsc2)cc1 (stereo not drawn) [Compound I-216]
21 | 12 | CC(C)C(=O)C1=C(O)C(=O)N(c2ccc(-c3ccsc3)cc2)C1c1ccccc1OCc1nnn[nH]1 (stereo not drawn) [Compound I-217]

Row | IC50 [nM] | SMILES
22 | 73 | COc1ccccc1C1C(C(=O)C2CC2)=C(O)C(=O)N1c1ccc(-c2ccsc2)cc1 (stereo not drawn) [Compound I-218]
23 | 324 | CC(C)C(=O)C1=C(O)C(=O)N(c2ccc(-c3ccsc3)cc2)C1c1ccccn1 (stereo not drawn) [Compound I-219]
24 | 5 | CC(C)C(=O)C1=C(O)C(=O)N(c2ccc(-c3ccsc3)cc2)C1c1ccccc1OCC(=N)NO (stereo not drawn) [Compound I-220]
25 | 81 | COc1cc(N2C(=O)C(O)=C(C(=O)C(C)C)C2c2ccccc2OC)ccc1-c1ccsc1 (stereo not drawn) [Compound I-221]
26 | 6 | COCCOc1ccccc1[C@@H]1C(C(=O)C(C)C)=C(O)C(=O)N1c1ccc(-c2ccsc2)cc1 [Compound I-222]
27 | 12 | CC(C)C(=O)C1=C(O)C(=O)N(c2ccc(-c3cccs3)cc2)C1c1ccccc1OCCO (stereo not drawn) [Compound I-223]
28 | 73 | COc1ccccc1C1C(C(=O)C(C)C)=C(O)C(=O)N1c1ccc(-c2ccco2)cc1 (stereo not drawn) [Compound I-224]
29 | 65 | CC(C)C(=O)C1=C(O)C(=O)N(c2ccc(-c3ccco3)cc2)C1c1ccccc1OCCO (stereo not drawn) [Compound I-225]
30 | 12 | COCCOc1ccccc1C1C(C(=O)C(C)C)=C(O)C(=O)N1c1ccc(-c2cccs2)cc1 (stereo not drawn) [Compound I-226]
31 | 8 | COCOc1ccccc1C1C(C(=O)C(C)C)=C(O)C(=O)N1c1ccc(-c2cccs2)cc1 (stereo not drawn) [Compound I-227]
32 | 15 | COCCOc1ncccc1C1C(C(=O)C(C)C)=C(O)C(=O)N1c1ccc(-c2cccs2)cc1 (stereo not drawn) [Compound I-228]
33 | 29 | CC(C)C(=O)C1=C(O)C(=O)N(c2ccc(-c3cccs3)cc2)C1c1cccnc1OCCO (stereo not drawn) [Compound I-229]
34 | 18 | COCOc1ccccc1C1C(C(=O)C(C)C)=C(O)C(=O)N1c1ccc(-c2ccco2)cc1 (stereo not drawn) [Compound I-230]
35 | 23 | COCCOc1ccccc1C1C(C(=O)C(C)C)=C(O)C(=O)N1c1ccc(-c2ccco2)cc1 (stereo not drawn) [Compound I-231]
36 | 24 | COCOc1ccccc1C1C(C(=O)C(C)C)=C(O)C(=O)N1c1ccc(-c2ccoc2)cc1 (stereo not drawn) [Compound I-232]
37 | 124 | CC(C)C(=O)C1=C(O)C(=O)N(c2ccc(-c3ccoc3)cc2)C1c1cccnc1OCCO (stereo not drawn) [Compound I-233]
38 | 56 | COCCOc1ncccc1C1C(C(=O)C(C)C)=C(O)C(=O)N1c1ccc(-c2ccoc2)cc1 (stereo not drawn) [Compound I-234]
39 | 35 | COc1ccccc1C1C(C(=O)C(C)C)=C(O)C(=O)N1c1ccc(-c2ccsc2)c(F)c1 (stereo not drawn) [Compound I-235]
40 | 431 | COc1ccccc1C1C(C(=O)C(C)C)=C(O)C(=O)N1c1ccc(-c2ccsc2)c(C)c1 (stereo not drawn) [Compound I-236]
41 | 705 | COc1ccccc1C1C(C(=O)C(C)C)=C(O)C(=O)N1c1ccc(-c2ccsc2)c(N)c1 (stereo not drawn) [Compound I-237]
42 | 35 | COc1ccccc1C1C(C(=O)CC(C)C)=C(O)C(=O)N1c1ccc(-c2ccsc2)cc1 (stereo not drawn) [Compound I-239]

Row | IC50 [nM] | SMILES
43 | 185 | COc1ccccc1C1C(C(=O)C(C)C)=C(O)C(=O)N1c1ccc(-c2ccsc2)c(O)c1 (stereo not drawn) [Compound I-240]
44 | 822 | COc1ccccc1C1C(C(=O)C(C)C)=C(O)C(=O)N1c1ccc(-c2ccsc2)c(CO)c1 (stereo not drawn) [Compound I-241]
45 | 357 | COc1ccccc1C1C(C(=O)C(C)C)=C(O)C(=O)N1c1ccc(-c2ccsc2)c(N(C)C)c1 (stereo not drawn) [Compound I-242]
46 | 27 | CC(C)C(=O)C1=C(O)C(=O)N(c2ccc(-c3ccsc3)cc2)C1c1ccccc1C#N (stereo not drawn) [Compound I-244]
47 | 47 | CC(C)C(=O)C1=C(O)C(=O)N(c2ccc(-c3ccsc3)cc2)C1c1ccccc1C(=O)N(C)C (stereo not drawn) [Compound I-245]
48 | 15 | COCCc1ccccc1C1C(C(=O)C(C)C)=C(O)C(=O)N1c1ccc(-c2ccsc2)cc1 (stereo not drawn) [Compound I-247]
49 | 30 | COCCOc1ncccc1C1C(C(=O)CC(C)C)=C(O)C(=O)N1c1ccc(-c2ccsc2)cc1 (stereo not drawn) [Compound I-248]
50 | 10 | COCOc1ccccc1C1C(C(=O)CC(C)C)=C(O)C(=O)N1c1ccc(-c2ccsc2)cc1 (stereo not drawn) [Compound I-249]
51 | 29 | CC(C)CC(=O)C1=C(O)C(=O)N(c2ccc(-c3ccsc3)cc2)C1c1ccccc1OCCO (stereo not drawn) [Compound I-250]
52 | 17 | COCCOc1ccccc1C1C(C(=O)CC(C)C)=C(O)C(=O)N1c1ccc(-c2ccsc2)cc1 (stereo not drawn) [Compound I-251]
53 | 10 | COCc1ccccc1C1C(C(=O)CC(C)C)=C(O)C(=O)N1c1ccc(-c2ccsc2)cc1 (stereo not drawn) [Compound I-252]
54 | 193 | CNC(=C(C)C)C1=C(O)C(=O)N(c2ccc(-c3ccsc3)cc2)C1c1cccnc1O (stereo not drawn) [Compound I-253]
55 | 511 | COCc1ccccc1[C@H]1C(C(=O)C(C)C)=C(O)C(=O)N1c1ccc(-c2ccsc2)cc1 [Compound I-254]
56 | 8 | COCc1ccccc1[C@@H]1C(C(=O)C(C)C)=C(O)C(=O)N1c1ccc(-c2ccsc2)cc1 [Compound I-255]
57 | 23 | Cc1cc(-c2ccc(N3C(=O)C(O)=C(C(=O)C(C)C)C3c3ccccc3OCCO)cc2)cs1 (stereo not drawn) [Compound I-256]
58 | 37 | COc1ccccc1C1C(C(=O)C(C)C)=C(O)C(=O)N1c1ccc(-c2csc(C)c2)cc1 (stereo not drawn) [Compound I-257]
59 | 24 | Cc1ccc(-c2ccc(N3C(=O)C(O)=C(C(=O)C(C)C)C3c3ccccc3OCCO)cc2)s1 (stereo not drawn) [Compound I-258]
60 | 30 | COc1ccccc1C1C(C(=O)C(C)C)=C(O)C(=O)N1c1ccc(-c2ccc(C)s2)cc1 (stereo not drawn) [Compound I-259]
61 | 19 | COCCOc1ccccc1C1C(C(=O)C(C)C)=C(O)C(=O)N1c1ccc(-c2csc(C)c2)cc1 (stereo not drawn) [Compound I-261]
62 | 16 | COCOc1ccccc1C1C(C(=O)C(C)C)=C(O)C(=O)N1c1ccc(-c2csc(C)c2)cc1 (stereo not drawn) [Compound I-262]
63 | 8 | COCCOc1ccccc1C1C(C(=O)C(C)C)=C(O)C(=O)N1c1ccc(-c2ccc(C)s2)cc1 (stereo not drawn) [Compound I-263]
